From patent US20240300980A1, “HETEROCYCLIC COMPOUNDS AS KRAS INHIBITOR, AND PREPARATION THEREFOR AND USE THEREOF IN TREATMENT” (SHANGHAI KECHOW PHARMA, INC., priority 2021, published 2024)

Test system: AGS cells (KRAS^G12D)
Assay: Detection of cell proliferation in vitro by MTT/MTS method (cell activity experiment)
Format: cell-based
Settings: AGS cells; MTT/MTS; 3 days of drug treatment; read-out: AGS IC50
In short: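 KRAS G12D AGS cells seeded at 1000 per well, compound added 24 h later, 0.5% final DMSO. Viability read after 3 days of treatment by MTT (solubilised in DMSO) or MTS, 4 h, absorbance 490 nm. IC50 from dose–response curves versus DMSO control.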

| Compound | IC50 [nM] |
| --- | --- |
| C#Cc1c(F)ccc2cc(O)cc(-c3ccc4c(N5C[C@H]6CC[C@@H](C5)C6[S+](C)[O-])nc(OC[C@@]56CCCN5C[C@H](F)C6)nc4c3F)c12 (stereo partly drawn) [Example 130, 5-ethynyl-6-fluoro-4-(8-fluoro-2-(((2R,7aS)-2-fluorotetrahydro-1H-pyrrolizin-7a(5H)-yl)methoxy)-4-((1R,5S, 8R)-8-(methylsulfinyl)-3-azabicyclo[3.2.1]octan-3-yl)quinazolin-7-yl)naphthalen-2-ol] | > 2500 |
| CCC1CCc2cc(O)cc(-c3ccc4c(N5C[C@H]6CC[C@@H](C5)N6)nc(OC[C@@]56CCCN5C[C@H](F)C6)nc4c3F)c21 (single isomer, unassigned) [Example 285] | 7 |
| CC1CCCc2cc(O)cc(-c3ccc4c(N5C[C@H]6CC[C@@H](C5)N6)nc(OC[C@@]56CCCN5C[C@H](F)C6)nc4c3F)c21 (single isomer, unassigned) [Example 288] | 7.2 |

Same assay, conditions: Homo sapiens, AGS, 72 h, AGS cells; MTT/MTS; 3 days of drug treatment; read-out: AGS IC50

| Compound | IC50 [nM] |
| --- | --- |
| C#Cc1c(F)ccc2cc(O)cc(N3CCc4c(nc(OC[C@@]56CCCN5C[C@H](F)C6)nc4N4C[C@H]5CC[C@@H](C4)N5)C3)c12 [Example 202, 4-(4-((1R,5S)-3,8-diazabicyclo[3.2.1]octan-3-yl)-2-(((2R,7aS)-2-fluorotetrahydro-1H-pyrrolizin-7a(5H)-yl)methoxy)-5,8-dihydropyrido[3,4-d]pyrimidin-7(6H)-yl)-5-ethynyl-6-fluoronaphthalen-2-ol] | 7.5 |
| C#Cc1c(F)ccc2cc(O)cc(-c3ncc4c(-c5cnn(C(=O)CO)c5)nc(OC[C@@]56CCCN5C[C@H](F)C6)nc4c3F)c12 [Example 87, 1-(4-(7-(8-ethynyl-7-fluoro-3-hydroxynaphthalen-1-yl)-8-fluoro-2-(((2R, 7aS)-2-fluorotetrahydro-1H-pyrrolizin-7a(5H)-yl)methoxy)pyrido[4,3-d]pyrimidin-4-yl)-1H-pyrazol-1-yl)-2-hydroxyethan-1-one] | > 10000 |
| C#Cc1c(F)ccc2cc(O)cc(-c3ncc4c(N5C[C@H]6CC[C@@H](C5)N6)c(C(F)(F)F)c(OC[C@@]56CCCN5C[C@H](F)C6)nc4c3F)c12 [Example 196, 4-(4-((1R,5S)-3,8-diazabicyclo[3.2.1]octan-3-yl)-8-fluoro-2-(((2R,7aS)-2-fluorotetrahydro-1H-pyrrolizin-7a(5H)-yl)methoxy)-3-(trifluoromethyl)-1,6-naphthyridin-7-yl)-5-ethynyl-6-fluoronaphthalen-2-ol] | > 2500 |
| C#Cc1cccc2cc(O)cc(-c3ncc4c(N5CC6CCCNC6C5)nc(OC[C@@]56CCCN5C[C@H](F)C6)nc4c3F)c12 (stereo partly drawn) [Example 53, 5-ethynyl-4-(8-fluoro-2-(((2R,7aS)-2-fluorotetrahydro-1H-pyrrolizin-7a(5H)-yl)methoxy)-4-(octahydro-6H-pyrrolo[3,4-b]pyridin-6-yl)pyrido[4,3-d]pyrimidin-7-yl)naphthalen-2-ol] | > 2500 |
| C#Cc1c(F)ccc2cc(O)cc(-c3ccc4c(N5CC(C(N)=O)C5)nc(OC[C@@]56CCCN5C[C@H](F)C6)nc4c3F)c12 [Example 215, 1-(7-(8-ethynyl-7-fluoro-3-hydroxynaphthalen-1-yl)-8-fluoro-2-(((2R,7aS)-2-fluorotetrahydro-1H-pyrrolizin-7a(5H)-yl)methoxy)quinazolin-4-yl)azetidine-3-carboxamide] | > 2500 |
| CC1CCCc2cc(O)cc(-c3ncc4c(N5C[C@H]6CC[C@@H](C5)N6)nc(OC[C@@]56CCCN5C[C@H](F)C6)nc4c3F)c21 (stereo partly drawn) [Example 224, 4-(4-((1R,5S)-3,8-diazabicyclo[3.2.1]octan-3-yl)-8-fluoro-2-(((2R,7aS)-2-fluorotetrahydro-1H-pyrrolizin-7a(5H)-yl)methoxy)pyrido[4,3-d]pyrimidin-7-yl)-5-methyl-5,6,7,8-tetrahydronaphthalen-2-ol] | 4.8 |
| CSC1CCc2cc(O)cc(-c3ncc4c(N5C[C@H]6CC[C@@H](C5)N6)nc(OC[C@@]56CCCN5C[C@H](F)C6)nc4c3F)c21 (stereo partly drawn) [Example 354, 7-(4-((1R,5S)-3,8-diazabicyclo[3.2.1]octan-3-yl)-8-fluoro-2-(((2R,7aS)-2-fluorotetrahydro-1H-pyrrolizin-7a(5H)-yl)methoxy)pyrido[4,3-d]pyrimidin-7-yl)-1-(methylthio)-2,3-dihydro-1H-inden-5-ol] | 25 |
| CCc1c(F)ccc2cc(O)cc(-c3c(F)c4nc(OC[C@@]56CCCN5C[C@H](F)C6)nc(N5C[C@H]6CC[C@@H](C5)N6)c4c4cncn34)c12 [Example 416, 4-(1-((1R,5S)-3,8-diazabicyclo[3.2.1]octan-3-yl)-5-fluoro-3-(((2R,7aS)-2-fluorotetrahydro-1H-pyrrolizin-7a(5H)-yl)methoxy)imidazo[1′,5′:1,2]pyrido[4,3-d]pyrimidin-6-yl)-5-ethyl-6-fluoronaphthalen-2-ol] | 28 |
| C=C1CCCc2cc(O)cc(-c3ncc4c(N5C[C@H]6CC[C@@H](C5)N6)nc(OC[C@@]56CCCN5C[C@H](F)C6)nc4c3F)c21 [Example 253, 4-(4-((1R,5S)-3,8-diazabicyclo[3.2.1]octan-3-yl)-8-fluoro-2-(((2R,7aS)-2-fluorotetrahydro-1H-pyrrolizin-7a(5H)-yl)methoxy)pyrido[4,3-d]pyrimidin-7-yl)-5-methylene-5,6,7,8-tetrahydronaphthalen-2-ol] | 42 |
| C#Cc1c(F)ccc2cc(O)cc(-c3ncc4c(N5C[C@H]6CC[C@@H](C5)N6)c(C#N)c(OC[C@@]56CCCN5C[C@H](F)C6)nc4c3F)c12 [Example 191, 4-((1R,5S)-3,8-diazabicyclo[3.2.1]octan-3-yl)-7-(8-ethynyl-7-fluoro-3-hydroxynaphthalen-1-yl)-8-fluoro-2-(((2R,7aS)-2-fluorotetrahydro-1H-pyrrolizin-7a(5H)-yl)methoxy)-1,6-naphthyridine-3-carbonitrile] | 120 |
| CCc1c(F)ccc2cc(O)cc(-c3ccc4c(N5C[C@H]6CC[C@@H](C5)N6)nc(OC[C@]56CCCN5[C@@H](COC(=O)N(C)C)CC6)nc4c3F)c12 [Example 97, ((3R,7aR)-7a-(((4-((1R,5S)-3,8-diazabicyclo[3.2.1]octan-3-yl)-7-(8-ethyl-7-fluoro-3-hydroxynaphthalen-1-yl)-8-fluoroquinazolin-2-yl)oxy)methyl)hexahydro-1H-pyrrolizin-3-yl) methyl dimethylcarbamate] | 18 |
| C#Cc1cccc2cc(O)cc(-c3ccc4c(N5CCC6(CC5)CO[C@@H](C)[C@H]6N)nc(OC[C@@]56CCCN5C[C@H](F)C6)nc4c3F)c12 [Example 115, 4-(4-((3S,4S)-4-amino-3-methyl-2-oxa-8-azaspiro[4.5]decan-8-yl)-8-fluoro-2-(((2R, 7aS)-2-fluorotetrahydro-1H-pyrrolizin-7a(5H)-yl)methoxy)quinazolin-7-yl)-5-ethynylnaphthalen-2-ol] | > 2500 |
| Oc1cc(-c2ncc3c(N4C[C@H]5CC[C@@H](C4)N5)nc(OC[C@@]45CCCN4C[C@H](F)C5)nc3c2F)c2c(c1)C1CC1C2 (stereo partly drawn) [Example 245, 5-(4-((1R,5S)-3,8-diazabicyclo[3.2.1]octan-3-yl)-8-fluoro-2-(((2R,7aS)-2-fluorotetrahydro-1H-pyrrolizin-7a(5H)-yl)methoxy)pyrido[4,3-d]pyrimidin-7-yl)-1,1a,6,6a-tetrahydrocyclopropa[a]inden-3-ol] | 25 |
| O=S1(=O)[C@@H]2CC[C@H]1CN(c1nc(OC[C@@]34CCCN3C[C@H](F)C4)nc3c(F)c(-c4cc(O)cc5ccc(F)c(F)c45)ccc13)C2 [Example 166, (1R,5S)-3-(7-(7,8-difluoro-3-hydroxynaphthalen-1-yl)-8-fluoro-2-(((2R,7aS)-2-fluorotetrahydro-1H-pyrrolizin-7a(5H)-yl)methoxy)quinazolin-4-yl)-8-thia-3-azabicyclo[3.2.1]octane 8,8-dioxide] | > 2500 |
| Nc1cc(-c2ncc3c(N4C[C@H]5CC[C@@H](C4)N5)nc(OC[C@@]45CCCN4C[C@H](F)C5)nc3c2F)c2ccccc2c1 [Example 42, 4-(4-((1R,5S)-3,8-diazabicyclo[3.2.1]octan-3-yl)-8-fluoro-2-(((2R,7aS)-2-fluorotetrahydro-1H-pyrrolizin-7a(5H)-yl)methoxy)pyrido[4,3-d]pyrimidin-7-yl) naphthalen-2-amine] | 109 |
| CN1CCc2cc(O)cc(-c3ncc4c(N5C[C@H]6CC[C@@H](C5)N6)nc(OC[C@@]56CCCN5C[C@H](F)C6)nc4c3F)c2C1=O [Example 273, 8-(4-((1R,5S)-3,8-diazabicyclo[3.2.1]octan-3-yl)-8-fluoro-2-(((2R,7aS)-2-fluorotetrahydro-1H-pyrrolizin-7a(5H)-yl)methoxy)pyrido[4,3-d]pyrimidin-7-yl)-6-hydroxy-2-methyl-3,4-dihydroisoquinolin-1(2H)-one] | > 2500 |
| C#Cc1cccc2cc(O)cc(-c3ccc4c(N5CC6CCCC(C5)N6)nc(OC[C@@]56CCCN5C[C@H](F)C6)nc4c3F)c12 [Example 106, 4-(4-(3,9-diazabicyclo [3.3.1]nonan-3-yl)-8-fluoro-2-(((2R,7aS)-2-fluorotetrahydro-1H-pyrrolizin-7a(5H)-yl)methoxy)quinazolin-7-yl)-5-ethynylnaphthalen-2-ol] | 120 |
| Oc1cc2c(c(-c3ncc4c(N5C[C@H]6CC[C@@H](C5)N6)nc(OC[C@@]56CCCN5C[C@H](F)C6)nc4c3F)c1)C(CC(F)(F)F)CC2 (stereo partly drawn) [Example 257, 7-(4-((1R,5S)-3,8-diazabicyclo[3.2.1]octan-3-yl)-8-fluoro-2-(((2R,7aS)-2-fluorotetrahydro-1H-pyrrolizin-7a(5H)-yl)methoxy)pyrido[4,3-d]pyrimidin-7-yl)-1-(2,2,2-trifluoroethyl)-2,3-dihydro-1H-inden-5-ol] | 1850 |
| C#Cc1c(F)ccc2cc(O)cc(-c3ncc4c(N5CCC6(CC5)CO[C@@H](C)[C@H]6N)nc(OC[C@@]56CCCN5C[C@H](F)C6)nc4c3F)c12 [Example 55, 4-(4-((3S,4S)-4-amino-3-methyl-2-oxa-8-azaspiro[4.5]decan-8-yl)-8-fluoro-2-(((2R, 7aS)-2-fluorotetrahydro-1H-pyrrolizin-7a(5H)-yl)methoxy)pyrido[4,3-d]pyrimidin-7-yl)-5-ethynyl-6-fluoronaphthalen-2-ol] | > 2500 |
